Experimental data taken from patent US11147272B2, “Pyridone compounds and agricultural and horticultural fungicides comprising the same as active ingredients” (MITSUI CHEMICALS AGRO, INC., priority 2017, dated 2021).

Experiments:
Magnaporthe grisea = experiment: whole plant or invertebrate; assay type: in vivo; conditions: for Test A control value class: class of control value
Alternaia brassicicola = experiment: Test Example C: Alternaria sooty spot on cabbage; assay type: in vivo; conditions: for Test C control value class: class of control value
Text: Seeds of a test plant (cabbage variety: Shikidori) were planted and cultivated until the cotyledons extended.
<Control Value> Control value=100{1−(n/3)}

Puccinia recondita = experiment: Test Example E: Brown rust on wheat; assay type: in vivo; conditions: for Test E control value class: class of control value
Phytophthora infestans = experiment: whole plant or invertebrate; assay type: in vivo; conditions: for Test F control value class: class of control value
Botrytis cinerea = experiment: Test Example B: Gray mold on tomato; conditions: for Test B control value class: class of control value
Plasmopara viticola = experiment: Test Example G: Downy mildew on vine; conditions: for Test G control value class: Downy mildew on vine (Neomuscat), 2.5 ml/pot, assessed 7 to 10 days after inoculation; for Test G control value: 7 to 10 days after inoculation
[1] = tested on: Colletotrichum orbiculare; experiment: Test Example H: Anthracnose on cucumber; conditions: for Test H control value class: Anthracnose on cucumber (Sagami Hanjiro), 2.5 ml/pot, assessed 6 to 10 days after inoculation; for Test H control value: 6 to 10 days after inoculation
Procedure: Seeds of a test plant (cucumber variety: Sagami Hanjiro) were planted and cultivated until the first leaf appeared. In the test, the inventive compounds were dissolved into dimethyl sulfoxide-methanol mixture solution (volume ratio: 9/1), and the resultant solutions were diluted with well water to a concentration of 250 ppm to obtain the drug solutions. The drug solutions were sprayed to the test plant (2.5 ml/pot). After the drug solutions dried, a conidial suspension (2-4×10^5 conidia/ml) of Colletotrichum orbiculare was inoculated to the plant by spraying. After the inoculation, the plant was kept in a mist chamber at room temperature of 20 to 23° C. for about 24 hours to promote the onset of disease. The degrees of disease development were investigated 6 to 10 days after the inoculation, and the effectiveness of the drug solutions was evaluated.
In Test Examples described above, the degrees of disease development were evaluated in increments of 0.05 from 0 (as no incidence of disease) to 3 (as the degree of disease development in an untreated plant group). Further, control values were calculated using the following equation based on the degree of disease development.
n=Degree of disease development in each treated group
In the table, H: more than 50% control value, L: 50% or less control value, and nt: not tested.

[2] = tested on: Blumeria graminis f. sp. hordei; experiment: Test Example D: Powdery mildew on barley; conditions: for Test D control value class: class of control value
[3] = Alternaria sooty spot on cabbage
[4] = Blast on rice, control value class
[5] = Alternaria sooty spot on cabbage, control value class
[6] = Brown rust on wheat, control value class
[7] = Late blight on tomato, control value class
[8] = Gray mold on tomato, control value class
[9] = Downy mildew on vine, 250 ppm spray
[10] = Anthracnose on cucumber, 250 ppm spray
[11] = Powdery mildew on barley, control value class
[12] = 250 ppm drug solution sprayed on test plant

Row | Structure (SMILES) | Test A control value class (Magnaporthe grisea; Blast on rice) | Test C control value class (Alternaia brassicicola; [3]) | Test E control value class (Puccinia recondita; Brown rust on wheat) | Test F control value class (Phytophthora infestans; Late blight on tomato) | Test B control value class (Botrytis cinerea; Gray mold on tomato) | Test G control value class (Plasmopara viticola; 250 ppm spray) | Test H control value class ([1]; 250 ppm spray) | Test D control value class ([2]; Powdery mildew on barley) | Test A control value (Magnaporthe grisea; [4]) | Test C control value (Alternaia brassicicola; [5]) | Test E control value (Puccinia recondita; [6]) | Test F control value (Phytophthora infestans; [7]) | Test B control value (Botrytis cinerea; [8]) | Test G control value (Plasmopara viticola; [9]) | Test H control value [1, 10] | Test D control value [2, 11] | other results
1 | CCn1c(-c2c(F)cc(F)cc2F)c(C(O)C(F)(F)F)cc(Cl)c1=O (centres unmarked) [Compound No. 515, 3-chloro-1-ethyl-5-(2,2,2-trifluoro-1-hydroxyethyl)-6-(2,4,6-trifluorophenyl)pyridin-2(1H)-one] |  |  |  |  |  |  |  |  |  |  |  |  |  |  |  |  | pest or weed control at 250 ppm (Magnaporthe grisea; Pyricularia oryzae, in Oryza sativa, read-out: Test A control value): > 50%; pest or weed control at 250 ppm (Alternaia brassicicola; topical, 250 ppm drug solution sprayed on test plant): < 50%; pest or weed control at 250 ppm (Puccinia recondita; Puccinia recondita, topical, 250 ppm drug solution sprayed on test plant): > 50%; pest or weed control at 250 ppm (Phytophthora infestans; Phytophthora infestans, in Solanum lycopersicum, topical, read-out: Test F control value): < 50%; pest or weed control at 250 ppm (Botrytis cinerea; Botrytis cinerea, in Solanum lycopersicum, topical, read-out: Test B control value): > 50%; pest or weed control at 250 ppm (Plasmopara viticola; Plasmopara viticola, topical, 168 h, read-out: Test G control value): > 50%; pest or weed control at 250 ppm ([1]; Colletotrichum orbiculare, in Cucumis sativus, topical, 144 h, read-out: Test H control value): > 50%; pest or weed control at 250 ppm ([2]; Blumeria graminis, in Hordeum vulgare, topical, read-out: Test D control value): < 50%
2 | CCn1c(-c2c(F)cc(F)cc2F)c(C(OC)C(C)(C)C)cc(Cl)c1=O (racemic) [compound 168] | H (more than 50% control value) | H (more than 50% control value) | H (more than 50% control value) | L (50% or less control value) | H (more than 50% control value) | L (50% or less control value) | L (50% or less control value) | H (more than 50% control value) |  |  |  |  |  |  |  |  | 
3 | CCN(Cc1cc(Cl)c(=O)n(CC)c1-c1c(F)cc(F)cc1F)OC [compound 151] | H (more than 50% control value) | H (more than 50% control value) | H (more than 50% control value) | L (50% or less control value) | H (more than 50% control value) | H (more than 50% control value) | H (more than 50% control value) | H (more than 50% control value) |  |  |  |  |  |  |  |  | 
4 | CCCC1=C(c2ccc(F)cc2Cl)N(C)C(=O)CC1 [compound 323] |  |  |  |  |  |  |  |  | L (50% or less control value) | L (50% or less control value) | L (50% or less control value) | L (50% or less control value) | H (more than 50% control value) | L (50% or less control value) | L (50% or less control value) | L (50% or less control value) | 
5 | CCC(C)c1cc(Cl)c(=O)n(CC)c1-c1c(F)cc(F)cc1F (centres unmarked) [compound 33] | H (more than 50% control value) | H (more than 50% control value) | H (more than 50% control value) | L (50% or less control value) | H (more than 50% control value) | L (50% or less control value) | H (more than 50% control value) | H (more than 50% control value) |  |  |  |  |  |  |  |  | 
6 | CCn1c(-c2ccccc2Cl)c(CC(C)C)cc(Cl)c1=O [compound 265] |  |  |  |  |  |  |  |  | H (more than 50% control value) | H (more than 50% control value) | H (more than 50% control value) | L (50% or less control value) | H (more than 50% control value) | H (more than 50% control value) | H (more than 50% control value) | H (more than 50% control value) | 
7 | CCn1c(-c2c(F)cc(OC)cc2F)c(C(C)(C)C)cc(Br)c1=O [compound 76] | H (more than 50% control value) | H (more than 50% control value) | H (more than 50% control value) | L (50% or less control value) | H (more than 50% control value) | L (50% or less control value) | H (more than 50% control value) | L (50% or less control value) |  |  |  |  |  |  |  |  | 
8 | CCn1c(-c2c(F)cc(F)cc2F)c(C(C)(OC)C(C)C)cc(Br)c1=O (centres unmarked) [compound 465] |  |  |  |  |  |  |  |  |  |  |  |  |  |  |  |  | Test A control value (Magnaporthe grisea; [12]): H (more than 50% control value); Test C control value (Alternaia brassicicola; [12]): H (more than 50% control value); Test E control value (Puccinia recondita; [12]): H (more than 50% control value); Test F control value (Phytophthora infestans; [12]): L (50% or less control value); Test B control value (Botrytis cinerea; [12]): H (more than 50% control value); Test G control value (Plasmopara viticola; 250 ppm drug solution sprayed (2.5 ml/pot), grape Neomuscat): H (more than 50% control value); Test H control value ([1]; 250 ppm drug solution sprayed (2.5 ml/pot), cucumber Sagami Hanjiro): H (more than 50% control value); Test D control value [2, 12]: H (more than 50% control value)
9 | CCc1cc(Br)c(=O)n(C)c1-c1ccc(F)cc1C [compound 363] |  |  |  |  |  |  |  |  | H (more than 50% control value) | L (50% or less control value) | H (more than 50% control value) | L (50% or less control value) | H (more than 50% control value) | H (more than 50% control value) | L (50% or less control value) | L (50% or less control value) | 
10 | CCCCc1ccc(=O)n(CC)c1-c1ccc(F)cc1Cl [compound 205] |  |  |  |  |  |  |  |  | H (more than 50% control value) | H (more than 50% control value) | H (more than 50% control value) | L (50% or less control value) | H (more than 50% control value) | H (more than 50% control value) | L (50% or less control value) | H (more than 50% control value) | 
11 | COc1cc(F)c(-c2c(C(C)(C)C)cc(Cl)c(=O)n2C)c(F)c1 [compound 85] | H (more than 50% control value) | H (more than 50% control value) | H (more than 50% control value) | L (50% or less control value) | H (more than 50% control value) | L (50% or less control value) | H (more than 50% control value) | L (50% or less control value) |  |  |  |  |  |  |  |  | 
12 | CCn1c(-c2ccc(F)cc2F)c(CC(C)C)cc(Cl)c1=O [compound 119] | H (more than 50% control value) | H (more than 50% control value) | H (more than 50% control value) | L (50% or less control value) | H (more than 50% control value) | H (more than 50% control value) | H (more than 50% control value) | H (more than 50% control value) |  |  |  |  |  |  |  |  | 
13 | CCCCCCCCCc1ccc(=O)n(CC)c1-c1ccc(F)cc1Cl [compound 273] |  |  |  |  |  |  |  |  | L (50% or less control value) | L (50% or less control value) | L (50% or less control value) | L (50% or less control value) | L (50% or less control value) | L (50% or less control value) | L (50% or less control value) | H (more than 50% control value) | 
